“Also recorded” adds a separate entry of the source.
Tests used:
[1] = target: purified bovine adrenal G6PDH (Bos taurus, UniProt F1MMK2); assay: G6PDH inhibition test; format: biochemical; conditions: individual determinations
From the text: The compound listed below are screened as inhibitors of purified bovine adrenal G6PDH activity as one predictor of cancer preventive action. The assay for testing the inhibition of purified bovine adrenal G6PDH is according to the procedure by Oertell, G. W. and Rebelein, I. in Biochem. Biophys. Acta, 184, 459-460 (1969).

[2] = Estrogenic and anti-estrogenic activity, uterine weight; format: in vivo, rat (female CD); conditions: 60 mg/kg s.c. for 3 days, DHEA significantly greater than control
Procedure: Estrogenic and Anti-Estrogenic Activity
Female CD rats, 26-27 days old, were injected subcutaneously for 3 days with one of the compounds of the present invention at 60 mg/kg in propylene glycol. Controls received propylene glycol alone. On the 4th day, the rats were killed and the uteri were dissected out and weighed.

mouse skin DNA = assay: (3H) DMBA binding to skin DNA; format: in vivo, mouse (A/J); conditions: for effect on 3H-DMBA binding to skin DNA: mice
[3] = Anti-obesity action, body weight, male A/J mice; format: in vivo, mouse (male A/J); conditions: 0.45% in diet
Procedure: Male A/J (5 weeks old) mice were obtained from the
Jackson Laboratory and were housed in polycarbonate cages (6
mice/cage) in animal quarters maintained at 24 ± 1° C. with 12
hours of light and 12 hours of darkness each day. One week
after arrival, the mice were placed on a diet containing
either DHEA, 8353, or without steroid. Animals were weighed

[4] = Anti-obesity action, body weight, female Balb/c mice; format: in vivo, mouse (female Balb/c); conditions: 0.25% in diet
Procedure: Female Balb/c (8 weeks old) mice were obtained from
the Jackson Laboratory and were housed in polycarbonate cages
(6 mice/cage) in animal quarters maintained at 24 ± 1° C. with
12 hours of light and 12 hours of darkness each day. One
week after arrival, the mice were placed on a diet containing
either DHEA, 8354, or without steroid. Animals were weighed

[5] = Liver weight after three weeks of diet treatment; format: in vivo, mouse (female Balb/c); conditions: 0.25% of diet
Procedure: (§1) Female Balb/c mice were housed in polycarbonate cages (6/mice/cage) in animal quarters maintained at 24°±1° C. with 12 hours of light and 12 hours of dark each day. The mice were placed on a diet containing either DHEA, 8354, A, B clofibrate or with no addition. Three weeks later the mice were killed, the livers were perfused with cold saline, weighed, and 5% liver homogenates were prepared for the determination of catalase activity by the spectrophotometric method of Luck (H. Luck, in Method in Enzyme Analysis, H. U. Bergmeyer, Ed. (Verlag Chemie, Weinheim/Bergstrasse, Germany, 1965)). Total protein was measured by the method of Lowry, et al. (O. H. Lowry, N. J. Rosebrough, A. L. Farr, R. J. Randall, J. Biol. Chem., 193, 265 (1951)).

liver catalase = assay: Liver catalase activity after three weeks of diet treatment; format: in vivo, mouse (female Balb/c)
Procedure: as §1

[6] = Body weight and food consumption in the DMBA binding experiment; format: in vivo, mouse; conditions: two weeks of feeding
Procedure: Binding of [^3 H]DMBA to mouse skin DNA was determined as described in Pashko, L. L., and Schwartz, A. G. (1983), Effect of food restriction, dehydroepiandrosterone, or obesity on the binding of ^3 H-7,12-dimethylbenz(a)anthracene to mouse skin DNA, J. Gerontol., 38, 8-12. Values are mean±SD for 3 individual determinations, with pooled tissue from 2 mice used for each determination. DHEA or testosterone (400 ug in 0.2 ml acetone) was applied to the skin one hour before [^3 H]DMBA. The mean weight of the food restricted mice was 18.5±1.0 gm, n=6, of the ad libitum fed, 27.4±1.0 gm, n=6, of the ad libitum fed treated with DHEA, 28.2±0.9 gm, n=6, and of the ad libitum fed treated with testosterone, 28.3±0.9 gm, n=6, following two weeks of feeding. The average food consumed was, in gm/mouse/day, 2.2, 3.8, 3.8 and 4.0 for the food restricted, ad libitum fed, ad libitum fed plus DHEA, and ad libitum fed plus testosterone groups, respectively.

[7] = Anti-weight effect in mice, general statements; format: in vivo, mouse
From the text: (Table 9 vs Table 5 and Table 6). […] Thus the cancer preventive the cancer preventive effect of DHEA may result indirectly from its anti-weight action rather than from a direct effect of DHEA or target cells.

[8] = without suppressing appetite; cited from earlier work
[9] = C3H mice, cited from earlier work
HeLa cell strain, TCRC-2 = conditions: cited from earlier work
[10] = long term treatment, NZB mice; cited from earlier work
[11] = oral; cited from earlier work
[12] = tested on: cultured rat kidney epithelial cell line; conditions: cited from earlier work
[13] = cited from earlier work

Sequence of purified bovine adrenal G6PDH (F1MMK2 31-70): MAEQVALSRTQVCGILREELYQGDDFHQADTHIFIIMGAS
Sequence of purified bovine adrenal G6PDH (F1MMK2 101-575): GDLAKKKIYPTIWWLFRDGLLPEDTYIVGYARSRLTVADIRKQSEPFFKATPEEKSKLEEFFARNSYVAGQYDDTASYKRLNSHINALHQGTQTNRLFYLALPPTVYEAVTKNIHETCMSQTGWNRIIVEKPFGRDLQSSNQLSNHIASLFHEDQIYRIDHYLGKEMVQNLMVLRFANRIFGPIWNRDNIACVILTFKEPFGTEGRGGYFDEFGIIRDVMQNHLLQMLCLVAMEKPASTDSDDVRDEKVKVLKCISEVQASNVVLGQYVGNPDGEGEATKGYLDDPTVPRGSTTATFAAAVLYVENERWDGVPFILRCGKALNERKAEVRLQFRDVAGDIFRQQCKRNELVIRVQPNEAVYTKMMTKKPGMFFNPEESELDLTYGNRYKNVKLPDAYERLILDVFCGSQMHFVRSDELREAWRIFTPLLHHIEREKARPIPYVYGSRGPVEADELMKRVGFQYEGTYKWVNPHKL

Which “Percent Inhibition of G6PDH” value ([1]; 10^-5 M) does the source give for `C[C@]12CC[C@H](O)CC1=CC[C@@H]1[C@@H]2CC[C@]2(C)C(=O)CC[C@@H]12` [DHEA, Dehydroepiandrosterone] here?
Its value is 57%.

What about the inhibition at 10 µM ([1]; 10^-5 M, read-out: Percent Inhibition of G6PDH) of the same compound?
The inhibition at 10 µM was 53%.

What about the inhibition at 1 µM ([1]; 10^-6 M, read-out: Percent Inhibition of G6PDH) of the same compound?
Its inhibition at 1 µM is 17%.

And the “Mean Uterine Weight ± S.D.” value ([2]; control 2.02 ± 0.28, p < .001)?
Its value is 4.17 ± 0.48 mg/100 gm body weight.

What about the “Mean Uterine Weigh ± S.D.” value ([2]; Table 2a, control 1.95 ± 0.22, p < 0.001) of the same compound?
Its value is 3.93 ± 0.71.

And the “SPECIFIC ACTIVITY, (3H) DMBA binding to skin DNA” value (mouse skin DNA; 400 ug topical one hour before DMBA, ad libitum fed 116 ± 5.2)?
The value was 66 ± 13 cpm/ug DNA.

And the “effect on 3H-DMBA binding to skin DNA” value (mouse skin DNA; four weeks, 400 mg/kg)?
The value was “does inhibit ^3 H-DMBA binding to skin DNA”.

What about the “effect on 3H-DMBA binding to skin DNA” value (mouse skin DNA; oral, doses well below 400 mg/kg) of the same compound?
The value was “inactive”.

What about the “effect on 3H-DMBA binding to skin DNA” value (mouse skin DNA; single administration, 400 mg/kg) of the same compound?
The value was “does not inhibit ^3 H-DMBA binding to skin DNA”.

And the “effect on rate of binding of 3H-DMBA to skin DNA” value (mouse skin DNA; topical, in words (Table 4))?
The value was “inhibits the rate of binding”.

What about the “mean weekly weight ± S.D.” value ([3]; week 0, control 23 ± 1.5) of the same compound?
The value was 23.0 ± 1.5 grams.

What about the “mean weekly weight ± S.D.” value ([3]; week 1, control 25.0 ± 1.6) of the same compound?
The value was 22.8 ± 1.5 grams.

And the “mean weekly weight ± S.D.” value ([3]; week 2, control 27.0 ± 1.6)?
Its value is 19.0 ± 1.5 grams.

What about the “mean weekly weight ± S.D.” value ([3]; week 3, control 27.3 ± 1.6) of the same compound?
The value was 21.5 ± 1.1 grams.

What about the “mean weekly weight ± S.D.” value ([3]; week 4, control 27.5 ± 1.9) of the same compound?
The value was 21.4 ± 1.2 grams.

What about the “mean weekly weight ± S.D.” value ([4]; week 0, control 17.5 ± 1.4) of the same compound?
The value was 17.5 ± 1.5 grams.

And the “mean weekly weight ± S.D.” value ([4]; week 1, control 19.9 ± 1.2)?
Its value is 20.0 ± 0.9 grams.

And the “mean weekly weight ± S.D.” value ([4]; week 2, control 20.6 ± 1.0)?
The value was 20.6 ± 0.9 grams.

And the “mean weekly weight ± S.D.” value ([4]; week 3, control 21.8 ± 0.8)?
Its value is 21.3 ± 1.3 grams.

And the “LIVER WEIGHT” value ([5]; control 0.057 ± 0.006, DHEA p < 0.05, clofibrate p < 0.002 vs control)?
Its value is 0.074 ± 0.005 gm/gm body weight.

And the “liver weight, in words” value ([5]; mice)?
Its value is “increased liver weight; also recorded: hepatomegaly”.

And the “CATALASE ACTIVITY” value (liver catalase; 0.25% of diet, control 31.1 ± 6.7, DHEA p < 0.05, clofibrate p < 0.001 vs control)?
The value was 97.8 ± 24 Units per mg protein.

What about the “increase in liver catalase specific activity” value (liver catalase; 0.25%, vs control) of the same compound?
The value was “threefold”.

And the “catalase activity, in words” value (liver catalase; mice, 0.25% of diet)?
Its value is “stimulated catalase activity”.

And the mean body weight ([6]; topical 400 ug, ad libitum fed 27.4±1.0)?
The mean body weight was 28.2±0.9 gm.

And the average food consumed ([6]; ad libitum fed 3.8)?
The average food consumed was 3.8 gm/mouse/day.

And the anti-weight effect ([7]; approximately 400 mg/kg daily, repeatedly over a few weeks)?
The anti-weight effect was “produces an anti-weight effect”.

What about the “effect on weight: cause of the anti-weight effect” value ([7]; four weeks, 400 mg/kg) of the same compound?
Its value is “due to both a reduction in food intake and to a decrease in the efficiency of food utilization”.

What about the “effect on obesity on long-term administration” value [8] of the same compound?
Its value is “prevented the development of obesity without suppressing appetite”.

And the “weight gain on long-term treatment” value [9]?
The value was “reducing weight gain without suppressing appetite”.

What about the “spontaneous breast cancer development” value ([9]; long-term treatment) of the same compound?
The value was “markedly inhibits spontaneous breast cancer development”.

And the “growth inhibition of HeLa TCRC-2” value (HeLa cell strain, TCRC-2)?
Its value is “particularly sensitive to DHEA-induced growth inhibition”.

What about the “reversal of growth inhibition by deoxynucleosides” value (HeLa cell strain, TCRC-2; mixture of deoxynucleosides of adenine, guanine, cytosine, thymine in medium) of the same compound?
Its value is “can be almost completely overcome”.

What about the “rate of development of the autoimmune anemia” value [10] of the same compound?
The value was “significantly inhibits the rate of development of the autoimmune anemia”.

And the survival [11]?
Its survival is “prolonged the survival”.

And the “capacity of TPA to stimulate 3H-thymidine incorporation” value [12]?
Its value is “antagonizes”.

What about the “enzyme-positive premalignant foci in the liver” value ([13]; 0.6%, 20-22 weeks, after 4 injections of carcinogen) of the same compound?
Its value is “inhibited the formation of enzyme-positive premalignant foci in the liver”.

And the “liver basophilic lesions, enzyme-negative” value ([13]; after carcinogen)?
The value was “promoted the development of liver basophilic lesions which were enzyme-negative”.

— patent US5744462A, “Steroids useful as anti-cancer and anti-obesity agents” (Research Corporation Technologies, Inc., priority 1995, dated 1998)
